Source: US20230026277A1, “COMPOSITION FOR PREVENTION, ALLEVIATION, OR TREATMENT OF RESPIRATORY DISEASE” (MICROX CO., LTD., priority 2019, published 2023)

What was measured:
Type in all cases: in vivo
[1] = system: neutrophils and eosinophils introduced into the airway; assay: Inflammatory cells (neutrophils and eosinophils) in bronchoalveolar lavage fluid, Diff-Quik staining, asthma-induced mice
Description: (§1) Eight-week-old female […] mice (Orient Bio Korea Inc., Korea) having no certain pathogen were accommodated in an aseptic laminar-flow cabinet, and bred by supplying a standard solid feed ad libitum. When the following experiment was performed, the mice were made to correspond to 7- to 8-weeks old, and all laboratory animals were managed according to the protocol approved by the Institutional Animal Care and Use Committee of the Chonbuk National University Medical School.
(§2) Also, on days 21 and 28 from the experimental starting date, the mice were put into a plastic box (Plexiglas (Rohm & Haas, Philadelphia, Pa.) exposure chamber; 24.5 cm×40.5 cm×15.0 cm), and 1.5% ovalbumin was evaporated using an ultrasonic nebulizer (NE-U12; output 0.8 mL/min; Omron, Japan), and injected into the box for 30 minutes so that the mice inhaled the evaporated ovalbumin (secondary challenge).
After the mice were anesthetized, a thin tube was inserted into the airway, and a piston process was repeated using a syringe filled with 0.2 mL of physiological saline to obtain a bronchoalveolar lavage fluid. The bronchoalveolar lavage fluid obtained through this piston process was stored at −70° C. when it was not immediately used in the experiments.
50 μL of the bronchoalveolar lavage fluid obtained in Experimental Method 2 was put on a slide used for the cytospin, and centrifuged for 30 minutes. Thereafter, Diff-Quik staining was performed, and inflammatory cells (neutrophils and eosinophils) were observed using a microscope.
Preparation Example 3 (α,δ-NA-L-G) or α,δ N-acetyl-D-glutamine (α,δ-NA-D-G) was orally administered to the asthma-induced mice of Experimental Method 1 daily from the experimental starting date at a concentration of 50, 100, or 200 μg/kg/day, and the cell numbers of neutrophils and eosinophils introduced into the airway through the method of Experimental Method 3 were measured. The results are shown in A and B of FIG. 3. In this case, the cell numbers were measured at 10 hours (neutrophils) or 48 hours (eosinophils) after a secondary challenge.

MKP-1 protein = assay: Western blot of MKP-1 protein in lung tissue of asthma-induced mice
Description: as §2
(§3) A tissue was extracted from each of the mice manufactured in Experimental Method 1, and finely ground to a cell level. Thereafter, the cells were lysed in a cell lysis buffer containing a protease inhibitor to obtain a cell lysate. The cell lysate was centrifuged to obtain protein. Then, an equivalent amount of the proteins obtained from the cells were loaded on an SDS-PAGE gel and electrophoresed. The proteins present in the electrophoresed gel were transferred to a PVDF membrane. […] The PVDF membrane was washed three times with a TBS-T buffer, and visualized and quantified using an ECL Western blotting detection reagent. […]
(§4) Small interfering RNA (siRNA; hereinafter referred to as “MKP-1 siRNA”) against RNA encoding an MKP-1 protein, and control siRNA strands were purchased from SANTA CRUZ (USA). […] An effect of the MKP-1 siRNA interference was determined by measuring an expression level of the MKP-1 protein in the lung tissue through Western blot analysis. […]

[2] = system: p-cPLA and p-p38 proteins; assay: Western blot of p-cPLA and p-p38 in lung tissue of asthma-induced mice
Description: as §2, §3, §4

asthma-induced mice = assay: Lung tissue staining, degree of inflammation (grades 0 to 3), asthma-induced mice; conditions: for inflammation score (lung tissue, grades 0 to 3): asthma-induced mice, 48 hours after secondary challenge, OVA group score 3, FIG. 6
Description: as §1, §2
A tissue was extracted from each of the mice manufactured in Experimental Method 1, and put into a 10% formalin solution, and reacted for 24 hours to prepare a paraffin block. Thereafter, the paraffin block was microtomed into slices with a size of 3 μm, and each of the slices was attached onto a slide, and heamatoxylin-eosin IHE staining was performed. Then, the slices were observed using a microscope. Here, the degree of inflammation was determined by indicating degrees of inflammation around the airway and blood vessels as grades 0 to 3.
0: There are no inflammatory cells;
1: Inflammatory cells are occasionally observed around the airway and blood vessels;
2: Most of the airway and blood vessels are surrounded by approximately 1 to 5 thin bands of inflammatory cells; and
3: Most of the airway and blood vessels are surrounded by thick bands of inflammatory cells (5 or more).
Preparation Example 3 (α,δ-NA-L-G) was orally administered to the asthma-induced mice of Experimental Method 1 at a concentration of 200 or 400 μg/kg/day 30 minutes before a secondary challenge, and the lung tissue was stained using the method described above in Experimental Method 6 48 hours after the secondary challenge, and the inflammation score was measured. The results are shown in A and B of FIG. 6.

[3] = lung tissue, oral daily 200, 500 or 1,000 μg/kg/day, 10 and 30 minutes after secondary challenge, FIG. 7
[4] = with MKP-1 siRNA treatment, same conditions as [5-1], FIG. 8

`CC(=O)NC(=O)CC[C@H](NC(C)=O)C(=O)O` [Preparation Example 3, 2,5-diacetamido-5-oxopentanoic acid] was tested, and the “inflow of the neutrophils and eosinophils into the airway” value ([1]; asthma-induced mice, oral daily 50, 100 or 200 μg/kg/day, neutrophils 10 hours, eosinophils 48 hours after secondary challenge, FIG. 3) was “very effectively inhibited”, the “inhibition of neutrophils, compared to the eosinophils” value ([1]; asthma-induced mice, oral daily, from a concentration of 50 μg/kg/day, FIG. 3A) was “very effectively inhibited the neutrophils” and the “cell numbers of the neutrophils and eosinophils” value ([1]; experiment [5-6], together with siRNA specific to MKP-1, FIG. 12) was “increased”. The “cell numbers of neutrophils and eosinophils” value ([1]; experiment [5-6], without MKP-1 siRNA, FIG. 12) was “decreased”, the “level of the MKP-1 protein” value (MKP-1 protein; [3]) was “more increased depending on the concentration” and the “level of the MKP-1 protein” value (MKP-1 protein; [4]) was “did not increase”. The “levels of the p-cPLA and p-p38 proteins” value [2, 3] was “decreased depending on the concentration”, the “phosphorylation levels of cPLA2 and p38” value [2, 4] was “increased” and the “inflammation score (lung tissue, grades 0 to 3)” value (asthma-induced mice; oral 200 μg/kg/day) was 2. The “inflammation score (lung tissue, grades 0 to 3)” value (asthma-induced mice; oral 400 μg/kg/day) was 1, the “inflammation-relieving effect (lung tissue)” value (asthma-induced mice; experiment [5-6], together with siRNA specific to MKP-1, FIG. 15) was “disappeared” and the “degree of inflammation in the lung tissue” value (asthma-induced mice; experiment [5-6], without MKP-1 siRNA, FIG. 15) was “inhibited”.
